Experiments:
[1] = Compression moldability test, tablet hardness (Test Example 5); type: physicochemical; settings: 200 mg tablets
Method: Tablets (flat-shaped, the diameter: 8.5 mm) containing 200 mg of the test materials were prepared by using a tableting process analyzer (Tab Flex TAB-10, OKADA SEIKO CO., LTD.) (The loading pressure: 5 and 10 kN). Next, the breaking strength of the tablets was measured by a tablet hardness tester (PC-30, OKADA SEIKO CO., LTD.).

[2] = tested on: Candida albicans TIMM1623; assay: Mouse Candida infection model test, oral administration (Test Example 6); type: in vivo; settings: immunosuppressed mice, i.v. infection about 3×10^4 CFU/mouse; 1 mg/kg orally once daily for 4 days; observed for 14 days; 5 mice/group
Method: Candida albicans TIMM1623, which was obtained from overnight cultures grown on Sabouraud dextrose agar (SDA) plates at 35° C., was suspended in sterile physiological saline, then diluted to prepare a suspension of inoculum organism.
Transient immunosuppression in mice (four-week-old, 5 mice/group) was induced by intraperitoneal treatment with 200 mg/kg cyclophosphamide 4 days before the infection and with 100 mg/kg cyclophosphamide 1 day after the infection. Infection was induced by the intravenous inoculation of 0.2 mL of the cell suspension of Candida albicans TIMM1623 (about 3×10^4 CFU/mouse) via the lateral tail vein. The test compound was dissolved in 0.1 mol/L hydrochloric acid, diluted by sterilized water and orally administered at 1 mg/kg of mouse body weight. The therapy was started at 2 hours after infection and carried out once daily for 4 days. The equivalent amount of sterilized physiological saline was administered to the group to which no test compound was administered. The survival number of mice was observed and recorded for 14 days.

[3] = Adhesion test to a metal cup (Test Example 4); type: physicochemical; settings: 5 g test material in SUS304 metal cup, weight adhering after turning over the cup
Method: 5 g of the test materials passed through a sieve (18 mesh) are filled in a metal cup (SUS304, the internal diameter: 65 mm, the volume: about 200 mL), and then the test materials were removed by turning over the cup. The weight of the test materials adhering on the surface of the cup was measured.

[4] = Tapped density (Test Example 1); type: physicochemical; settings: sieved 18 mesh, tapped 180 times, W/V1
Method: The test materials passed through a sieve (18 mesh) were filled into a measuring cylinder and the weight W(g) of the filled test materials was measured. Next, the measuring cylinder containing the test materials was mechanically tapped 180 times by a powder characteristic measuring device (a powder tester PT-E, Hosokawa Micron Corporation). After tapping, the volume V1 (mL) of the tapped test materials was measured. By the following formula, the tapped density (g/mL) was calculated. Tapped density (g/mL)=W/V1

[5] = Sticking test, scraper pressure of tablets (Test Example 3); type: physicochemical; settings: tablets containing 200 mg, diameter 8.5 mm, loading pressure 10 kN
Method: Tablets (flat-shaped, the diameter 8.5 mm) containing 200 mg of the test materials were prepared by using a tableting process analyzer (Tab Flex TAB-10, OKADA SEIKO CO., LTD.) (the loading pressure: 10 kN). Next, the scraper pressure was measured when the tablets were pushed out by a scraper.

[6] = Surface potential after corona discharge (Test Example 2); type: physicochemical; settings: 25° C., 50% RH; corona discharge −4 kV for 2 minutes
Method: The following test was conducted in a thermo-hygrostat (25° C., 50% RH). The test materials were set in a sample plate (SUS304, the surface was ground by a buff400, the volume: about 6 mL, the depth: 3 mm, cylindrical, the upper aspect was opened), and was charged by corona discharge (the corona voltage: −4 kV) from an impressed voltage device for 2 minutes (the distance between the impressed voltage device and the sample plate: 30 mm). After charging, the surface potential of the test materials was measured (the distance between the sensor and the sample: 5 mm). Thermo-hygrostat: KCL-2000, EYELA CORPORATION Surface potential measurement device: SK-200, KEYENCE CORPORATION Impressed voltage device: SJ-G036, KEYENCE CORPORATION Data logger: AD-DIO Card Bus, Interface Corporation

| SMILES | Hardness ([1]; Loading pressure 5 kN) [N] | Hardness ([1]; Loading pressure 10 kN) [N] | mice survived [2] [%] | Adhering amount [3] [mg] | Tapped density [4] [g/mL] | Scraper pressure [5] [kN] | Surface potential [6] [kV] |
| --- | --- | --- | --- | --- | --- | --- | --- |
| CCCCOC(=O)N=C(N)c1ccc(OCCCC2CCN(CCCOc3ccc(C(N)=NC(=O)OCCCC)cc3)CC2)cc1 [Type I crystal, 4-{3-[4-(3-{4-[amino(butoxycarbonylimino)methyl]phenoxy}propyl)-1-piperidinyl]propoxy}-N′-(butoxycarbonyl)benzamidine] | 56 | 57 | 80 | 70 | 0.22 | 7.2 | −2.3 |
| CCCCOC(=O)N=C(N)c1ccc(OCCCC2CCN(CCCOc3ccc(C(N)=NC(=O)OCCCC)cc3)CC2)cc1 [Type III crystal, 4-{3-[4-(3-{4-[amino(butoxycarbonylimino)methyl]phenoxy}propyl)-1-piperidinyl]propoxy}-N′-(butoxycarbonyl)benzamidine] | 66 | 95 | 80 | 22 | 0.45 | 1.9 | −1.9 |
| CCCCOC(=O)N=C(N)c1ccc(OCCCC2CCN(CCCOc3ccc(C(N)=NC(=O)OCCCC)cc3)CC2)cc1 [Type IV crystal, 4-{3-[4-(3-{4-[amino(butoxycarbonylimino)methyl]phenoxy}propyl)-1-piperidinyl]propoxy}-N′-(butoxycarbonyl)benzamidine] |  |  | 80 | 40 | 0.47 | 2.9 | −1.3 |
| CCCCOC(=O)N=C(N)c1ccc(OCCCC2CCN(CCCOc3ccc(C(N)=NC(=O)OCCCC)cc3)CC2)cc1 [Type II crystal, 4-{3-[4-(3-{4-[amino(butoxycarbonylimino)methyl]phenoxy}propyl)-1-piperidinyl]propoxy}-N′-(butoxycarbonyl)benzamidine] | 63 | 94 | 80 | 17 | 0.40 | 2.9 |  |
